The text below walks through data of patent US9765075B2, “Substituted bridged urea analogs as sirtuin modulators” (GLAXOSMITHKLINE LLC, priority 2013, dated 2017).

The assay addresses T1, SIRT1 (Homo sapiens, UniProt Q96EB6).
T1 sequence (Q96EB6 1-747): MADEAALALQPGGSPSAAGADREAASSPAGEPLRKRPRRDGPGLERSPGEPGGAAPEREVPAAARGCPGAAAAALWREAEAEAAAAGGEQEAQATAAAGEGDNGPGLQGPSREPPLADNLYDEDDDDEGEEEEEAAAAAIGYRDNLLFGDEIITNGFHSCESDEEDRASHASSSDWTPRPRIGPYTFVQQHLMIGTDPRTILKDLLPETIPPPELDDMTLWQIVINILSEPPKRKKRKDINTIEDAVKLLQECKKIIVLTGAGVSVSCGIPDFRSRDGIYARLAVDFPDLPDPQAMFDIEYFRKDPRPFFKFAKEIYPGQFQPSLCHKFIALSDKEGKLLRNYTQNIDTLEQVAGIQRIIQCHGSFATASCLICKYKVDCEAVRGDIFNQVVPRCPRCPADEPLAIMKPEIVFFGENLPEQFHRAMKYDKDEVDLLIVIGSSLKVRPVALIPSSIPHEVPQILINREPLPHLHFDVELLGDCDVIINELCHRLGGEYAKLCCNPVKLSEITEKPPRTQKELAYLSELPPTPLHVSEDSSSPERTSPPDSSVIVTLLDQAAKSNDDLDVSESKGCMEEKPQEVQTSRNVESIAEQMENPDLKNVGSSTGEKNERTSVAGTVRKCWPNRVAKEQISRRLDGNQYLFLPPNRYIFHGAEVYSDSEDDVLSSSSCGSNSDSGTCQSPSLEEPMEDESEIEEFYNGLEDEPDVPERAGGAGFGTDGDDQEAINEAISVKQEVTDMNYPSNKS
Put plainly: Trp mass spectrometry assay (SIRT1 activation). To be noted: Trp peptide substrate; for Tryp AVG EC1.5 (μM): concentration of test compound that results in 150% activation of SIRT1; for Emax: percent maximum fold activation of SIRT1, read-out: Tryp % Fold Act. It is filed as biochemical. In a few lines:
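N-His-tagged SIRT1 (10 nM), expressed in E. coli, was incubated with 0.5 μM Ac-RHKK(Ac)W-NH2 peptide and 120 μM NAD+ for 25 min at 25 °C in HEPES pH 7.5 with […]. The reaction was stopped with formic acid and O-acetyl-ADP-ribose or deacetylated peptide was quantified by mass spectrometry. Results are given as EC1.5 and percent maximal activation relative to DMSO control.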

`COc1cc(NC(=O)N2c3nc(-c4cccc(C(F)(F)F)c4)ccc3N3CCC[C@@H]2C3)ncn1` [Example 274]: the “Tryp AVG EC1.5 (μM)” value is “A (EC1.5<1 μM)” and the Emax is not below 150%.
For the compound `O=C(Nc1cnccn1)N1c2nc(-c3cncc(Cl)c3)ccc2N2CC[C@H]1C2` [Example 275], the “Tryp AVG EC1.5 (μM)” value is recorded as “A (EC1.5<1 μM)” and the Emax was not below 150%.
With `O=C(Nc1ccncn1)N1c2nc(-c3cncc(C(F)(F)F)c3)ccc2N2CC[C@H]1C2` [Example 276], the “Tryp AVG EC1.5 (μM)” value was “A (EC1.5<1 μM)” and the Emax was not below 150%.
For the compound `O=C(Nc1ccc(F)cn1)N1c2nc(-c3cncc(C(F)(F)F)c3)ccc2N2CC[C@H]1C2` [Example 277], the “Tryp AVG EC1.5 (μM)” value was “A (EC1.5<1 μM)” and the Emax was not below 150%.
With `O=C(Nc1cnccn1)N1c2nc(-c3cncc(C(F)(F)F)c3)ccc2N2CC[C@H]1C2` [Example 278], the “Tryp AVG EC1.5 (μM)” value is “A (EC1.5<1 μM)” and the Emax is not below 150%.
As to `O=C(Nc1ccccn1)N1c2nc(-c3cccc(N4CC[C@@H](F)C4)c3)ccc2N2CC[C@H]1C2` [Example 279], the “Tryp AVG EC1.5 (μM)” value is recorded as “A (EC1.5<1 μM)” and the Emax was not below 150%.
Take `O=C(Nc1ccccn1)N1c2nc(-c3cccc(N4CC[C@H](F)C4)c3)ccc2N2CC[C@H]1C2` [Example 280]: the “Tryp AVG EC1.5 (μM)” value is “A (EC1.5<1 μM)” and the Emax was not below 150%.
Regarding `COc1cc(NC(=O)N2c3nc(-c4cccc(N5CC[C@@H](F)C5)c4)ccc3N3CC[C@H]2C3)ncn1` [Example 281], the “Tryp AVG EC1.5 (μM)” value is given as “A (EC1.5<1 μM)” and the Emax was not below 150%.
Take `O=C(Nc1cncc(F)c1)N1c2nc(-c3cccc(N4CC[C@@H](F)C4)c3)ccc2N2CC[C@H]1C2` [Example 282]: the “Tryp AVG EC1.5 (μM)” value is given as “A (EC1.5<1 μM)” and the Emax was not below 150%.
As to `O=C(Nc1cncc(F)c1)N1c2nc(-c3cccc(N4CC[C@H](F)C4)c3)ccc2N2CC[C@H]1C2` [Example 283], the “Tryp AVG EC1.5 (μM)” value is recorded as “A (EC1.5<1 μM)” and the Emax was not below 150%.
With `O=C(Nc1cnccn1)N1c2nc(-c3ccnc(F)c3)ccc2N2CC[C@H]1C2` [Example 284], the “Tryp AVG EC1.5 (μM)” value is “B (EC1.5 1-25 μM)” and the Emax was not below 150%.
As for `O=C(Nc1cccc(-c2cnco2)c1)N1c2nc(N3CCCC(C(F)(F)F)C3)ccc2N2CCC[C@H]1C2` (stereo partly drawn) [Example 285], the “Tryp AVG EC1.5 (μM)” value is on record as “A (EC1.5<1 μM)” and the Emax was not below 150%.
Taken in the same sequence, the figures for `O=C(Nc1ccccn1)N1c2nc(N3CCCC(C(F)(F)F)C3)ccc2N2CCC[C@H]1C2` (stereo partly drawn) [Example 286] were “A (EC1.5<1 μM)” and not below 150%.
For the compound `Cc1cc(C)nc(NC(=O)N2c3nc(N4CCCC(C(F)(F)F)C4)ccc3N3CCC[C@H]2C3)c1` (stereo partly drawn) [Example 287], the “Tryp AVG EC1.5 (μM)” value was “B (EC1.5 1-25 μM)” and the Emax was not below 150%.
`O=C(Nc1cccnc1)N1c2nc(N3CCCC(C(F)(F)F)C3)ccc2N2CCC[C@H]1C2` (stereo partly drawn) [Example 288]: the “Tryp AVG EC1.5 (μM)” value is given as “A (EC1.5<1 μM)” and the Emax was not below 150%.
`Cc1cncc(NC(=O)N2c3nc(N4CCCC(C(F)(F)F)C4)ccc3N3CCC[C@H]2C3)c1` (stereo partly drawn) [Example 289]: the “Tryp AVG EC1.5 (μM)” value is recorded as “A (EC1.5<1 μM)” and the Emax is not below 150%.
As to `O=C(Nc1cncc(F)c1)N1c2nc(N3CCCC(C(F)(F)F)C3)ccc2N2CCC[C@H]1C2` (stereo partly drawn) [Example 290], the “Tryp AVG EC1.5 (μM)” value is “A (EC1.5<1 μM)” and the Emax is not below 150%.
Regarding `O=C(Nc1ccncc1F)N1c2nc(N3CCCC(C(F)(F)F)C3)ccc2N2CCC[C@H]1C2` (stereo partly drawn) [Example 291], the “Tryp AVG EC1.5 (μM)” value was “B (EC1.5 1-25 μM)” and the Emax was not below 150%.
Taken in the same sequence, the figures for `O=C(Nc1ncccn1)N1c2nc(N3CCCC(C(F)(F)F)C3)ccc2N2CCC[C@H]1C2` (stereo partly drawn) [Example 292] were “A (EC1.5<1 μM)” and not below 150%.
For `O=C(Nc1cnccn1)N1c2nc(N3CCCC(C(F)(F)F)C3)ccc2N2CCC[C@H]1C2` (stereo partly drawn) [Example 293], the “Tryp AVG EC1.5 (μM)” value is given as “A (EC1.5<1 μM)” and the Emax is not below 150%.
Regarding `O=C(Nc1ccncn1)N1c2nc(N3CCCC(C(F)(F)F)C3)ccc2N2CCC[C@H]1C2` (stereo partly drawn) [Example 294], the “Tryp AVG EC1.5 (μM)” value is recorded as “B (EC1.5 1-25 μM)” and the Emax is not below 150%.
As to `O=C(Nc1nccs1)N1c2nc(N3CCCC(C(F)(F)F)C3)ccc2N2CCC[C@H]1C2` (stereo partly drawn) [Example 295], the “Tryp AVG EC1.5 (μM)” value is “A (EC1.5<1 μM)” and the Emax is not below 150%.
As for `Cc1cnc(NC(=O)N2c3nc(N4CCCC(C(F)(F)F)C4)ccc3N3CCC[C@H]2C3)s1` (stereo partly drawn) [Example 296], the “Tryp AVG EC1.5 (μM)” value was “B (EC1.5 1-25 μM)” and the Emax was not below 150%.
Taken in the same sequence, the figures for `Cc1csc(NC(=O)N2c3nc(N4CCCC(C(F)(F)F)C4)ccc3N3CCC[C@H]2C3)n1` (stereo partly drawn) [Example 297] were “B (EC1.5 1-25 μM)” and not below 150%.
With `Cc1nc(NC(=O)N2c3nc(N4CCCC(C(F)(F)F)C4)ccc3N3CCC[C@H]2C3)sc1C` (stereo partly drawn) [Example 298], the “Tryp AVG EC1.5 (μM)” value is on record as “B (EC1.5 1-25 μM)” and the Emax was not below 150%.
Taken in the same sequence, the figures for `O=C(Nc1cccc(-c2cnco2)c1)N1c2nc(N3CCCC(C(F)(F)F)C3)ccc2N2CCC[C@@H]1C2` (stereo partly drawn) [Example 299] were “A (EC1.5<1 μM)” and not below 150%.
Regarding `O=C(Nc1ccccn1)N1c2nc(N3CCCC(C(F)(F)F)C3)ccc2N2CCC[C@@H]1C2` (stereo partly drawn) [Example 300], the “Tryp AVG EC1.5 (μM)” value was “C (EC1.5>25 μM)” and the Emax was less than 150%.
For the compound `Cc1cc(C)nc(NC(=O)N2c3nc(N4CCCC(C(F)(F)F)C4)ccc3N3CCC[C@@H]2C3)c1` (stereo partly drawn) [Example 301], the “Tryp AVG EC1.5 (μM)” value is given as “C (EC1.5>25 μM)” and the Emax is less than 150%.
Take `O=C(Nc1cccnc1)N1c2nc(N3CCCC(C(F)(F)F)C3)ccc2N2CCC[C@@H]1C2` (stereo partly drawn) [Example 302]: the “Tryp AVG EC1.5 (μM)” value is reported as “B (EC1.5 1-25 μM)” and the Emax was not below 150%.
As to `Cc1cncc(NC(=O)N2c3nc(N4CCCC(C(F)(F)F)C4)ccc3N3CCC[C@@H]2C3)c1` (stereo partly drawn) [Example 303], the “Tryp AVG EC1.5 (μM)” value is on record as “B (EC1.5 1-25 μM)” and the Emax is not below 150%.
As to `O=C(Nc1cncc(F)c1)N1c2nc(N3CCCC(C(F)(F)F)C3)ccc2N2CCC[C@@H]1C2` (stereo partly drawn) [Example 304], the “Tryp AVG EC1.5 (μM)” value is “B (EC1.5 1-25 μM)” and the Emax is not below 150%.
Taken in the same sequence, the figures for `O=C(Nc1ccncc1)N1c2nc(N3CCCC(C(F)(F)F)C3)ccc2N2CCC[C@@H]1C2` (stereo partly drawn) [Example 305] were “B (EC1.5 1-25 μM)” and not below 150%.
Consider `O=C(Nc1cnccn1)N1c2nc(N3CCCC(C(F)(F)F)C3)ccc2N2CCC[C@@H]1C2` (stereo partly drawn) [Example 307], for which the “Tryp AVG EC1.5 (μM)” value was “B (EC1.5 1-25 μM)” and the Emax was not below 150%.
Taken in the same sequence, the figures for `O=C(Nc1ccncn1)N1c2nc(N3CCCC(C(F)(F)F)C3)ccc2N2CCC[C@@H]1C2` (stereo partly drawn) [Example 308] were “C (EC1.5>25 μM)” and not below 150%.
Regarding `COc1cncc(NC(=O)N2c3nc(N4CCCC(C(F)(F)F)C4)ccc3N3CCC[C@@H]2C3)c1` (stereo partly drawn) [Example 309], the “Tryp AVG EC1.5 (μM)” value is reported as “B (EC1.5 1-25 μM)” and the Emax is not below 150%.
`O=C(Nc1nccs1)N1c2nc(N3CCCC(C(F)(F)F)C3)ccc2N2CCC[C@@H]1C2` (stereo partly drawn) [Example 310]: the “Tryp AVG EC1.5 (μM)” value was “B (EC1.5 1-25 μM)” and the Emax is not below 150%.
Taken in the same sequence, the figures for `Cc1cnc(NC(=O)N2c3nc(N4CCCC(C(F)(F)F)C4)ccc3N3CCC[C@@H]2C3)s1` (stereo partly drawn) [Example 311] were “C (EC1.5>25 μM)” and less than 150%.
As for `Cc1csc(NC(=O)N2c3nc(N4CCCC(C(F)(F)F)C4)ccc3N3CCC[C@@H]2C3)n1` (stereo partly drawn) [Example 312], the “Tryp AVG EC1.5 (μM)” value was “B (EC1.5 1-25 μM)” and the Emax was not below 150%.
As for `Cc1nc(NC(=O)N2c3nc(N4CCCC(C(F)(F)F)C4)ccc3N3CCC[C@@H]2C3)sc1C` (stereo partly drawn) [Example 313], the “Tryp AVG EC1.5 (μM)” value is given as “C (EC1.5>25 μM)” and the Emax was less than 150%.
As to `O=C(Nc1cccc(C2(C(F)(F)F)N=N2)c1)N1c2nc(-c3cccc(C(F)(F)F)c3)ccc2N2CC[C@H]1C2` [Example 315], the “Tryp AVG EC1.5 (μM)” value is given as “B (EC1.5 1-25 μM)” and the Emax is not below 150%.
With `O=C(Nc1ccccn1)N1c2nc(-c3cncc(C(F)(F)F)c3)ccc2N2CC[C@H]1C2` [Example 316], the “Tryp AVG EC1.5 (μM)” value was “A (EC1.5<1 μM)” and the Emax was not below 150%.
Regarding `COc1cc(NC(=O)N2c3nc(-c4cncc(C(F)(F)F)c4)ccc3N3CC[C@H]2C3)ncn1` [Example 317], the “Tryp AVG EC1.5 (μM)” value is recorded as “B (EC1.5 1-25 μM)” and the Emax is not below 150%.
